{"source": "paper PMC8201753", "about": "(ACS Medicinal Chemistry Letters, 2021)", "origin": "cited, not measured here", "system": "ERα-dependent cells", "conditions": "cited from earlier work", "data": [{"smiles": "C=CC(C)(C)OC[C@H]1O[C@H](O[C@@H]2C3=C([C@H](C)COC(C)=O)C[C@H](O)[C@]3(C)/C=C3/[C@@H](COC)CC[C@H]3[C@@H](C)[C@H]2O)[C@H](O)[C@@H](OC(C)=O)[C@@H]1O", "note": "[FC-A, fusicoccin-A]", "values": [{"measurement": "Growth of ERα-dependent cells", "result": "blocks growth"}]}]}
